From US9487489B2, “Halogen-substituted pyrazole derivatives as pest-control agents” (BAYER CROPSCIENCE AKTIENGESELLSCHAFT, priority 2013, dated 2016)

Experiments:
[1] = tested on: cattle ticks (Boophilus microplus) Parkhurst strain, SP-resistant; assay: Boophilus microplus dip test (BOOPMI Dip); format: in vivo; details: application rate 100 ppm, assessed after 7 days
Description: B. Boophilus microplus-dip Test (BOOPMI Dip)
Test animals: cattle ticks (Boophilus microplus) Parkhurst strain, SP-resistant
Solvent: dimethyl sulphoxide
10 mg of active compound are dissolved in 0.5 ml of dimethyl sulphoxide. For the purpose of preparing a suitable formulation, the active compound solution is diluted with water to the concentration desired in each case.
This active compound preparation is pipetted into tubes. 8-10 adult engorged female cattle ticks (Boophilus microplus) are transferred into a further tube with holes. The tube is immersed into the active compound formulation, and all ticks are completely wetted. After the liquid has run out, the ticks are transferred on filter discs into plastic dishes and stored in a climate-controlled room.
The activity is assessed after 7 days by laying of fertile eggs. Eggs whose fertility is not visible from the outside are stored in a climate-controlled cabinet until the larvae hatch after about 42 days. An efficacy of 100% means that none of the ticks has laid any fertile eggs; 0% means that all eggs are fertile.

[2] = tested on: engorged adult female cattle ticks (Boophilus microplus); assay: Boophilus microplus injection test (BOOPMI Inj); format: in vivo; details: application rate 20 μg/animal; injection into abdomen; assessed after 7 days
Outline: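 Efficacy is read at 7 days as fertile egg laying (100% = no fertile eggs laid; 0% = all eggs fertile), with eggs of unclear fertility stored until larvae hatch at about 42 days. Five engorged adult females per dose each receive an abdominal injection of 1 μl compound dissolved in DMSO.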

[3] = tested on: adult cat fleas (Ctenocephalides felis); assay: Ctenocephalides felis oral test (CTECFE); format: in vivo; details: application rate 100 ppm in citrated cattle blood; after 2 days
Outline: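 Mortality read at 2 days as percent of fleas killed. Compound predissolved in DMSO, diluted into citrated cattle blood and offered to roughly 20 unfed adult C. felis via parafilm membrane feeder.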

[4] = tested on: L1 larvae of the Australian sheep blowfly (Lucilia cuprina); assay: Lucilia cuprina test (LUCICU); format: in vivo; details: application rate 100 ppm; after 2 days
Outline: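 Percent mortality read at 2 days; 100% = all larvae killed, 0% = none. Test compound, predissolved in DMSO and water-diluted to the wanted level, was mixed into minced horsemeat holding roughly 20 first-instar larvae.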

[5] = tested on: adult houseflies (Musca domestica); assay: Musca domestica test (MUSCDO); format: in vivo; details: application rate 100 ppm; after 2 days
Outline: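 Groups of 10 adult Musca domestica exposed to a sugar-soaked sponge treated with the water-diluted DMSO preparation of compound at the chosen concentration. Percent kill read at day 2, where 0% means no flies killed and 100% all killed.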

[6] = tested on: adult cat fleas (Ctenocephalides felis); assay: Ctenocephalides felis in vitro contact test with adult cat fleas (T1); details: after 48 h
Outline: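 Adult cat fleas (Ctenocephalides felis), 5-10 per tube, were exposed to the inner surface of 25 ml test tubes coated with compound in acetone. Tubes were incubated lying flat under ambient conditions. Efficacy was then read by standing tubes upright and knocking the fleas to the floor. Fleas that stayed motionless or moved uncoordinatedly counted as dead or moribund, where 100% means all fleas dead or moribund and 0% means none harmed.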

[7] = tested on: green peach aphid (Myzus persicae); assay: Myzus persicae spray test (MYZUPE); format: in vivo; details: Chinese cabbage leaf discs, after 6 days
Description: G. Myzus persicae-spray Test (MYZUPE)
Solvents: 78 parts by weight of acetone
• 1.5 parts by weight of dimethylformamide Emulsifier: alkylaryl polyglycol ether
To produce a suitable preparation of active compound, 1 part by weight of active compound is dissolved using the stated parts by weight of solvent and made up with water comprising an emulsifier concentration of 1000 ppm until the desired concentration is reached. To produce further test concentrations, the preparation is diluted with emulsifier-containing water.
Discs of Chinese cabbage leaves (Brassica pekinensis) infested by all stages of the green peach aphid (Myzus persicae) are sprayed with an active compound preparation of the desired concentration.
After 6 days, the efficacy in % is determined 100% here means that all of the aphids have been killed; 0% means that no aphids have been killed.

[8] = tested on: larvae of the mustard beetle (Phaedon cochleariae); assay: Phaedon cochleariae spray test (PHAECO); format: in vivo; details: Chinese cabbage leaf discs, after 7 days
Outline: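 Kill of mustard beetle larvae is read as % mortality 7 days after spraying. Spray liquid: active compound in acetone plus dimethylformamide, brought up with water holding 1000 ppm alkylaryl polyglycol ether emulsifier and diluted further in emulsifier-water.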

[9] = tested on: caterpillars of the armyworm (Spodoptera frugiperda); assay: Spodoptera frugiperda spray test (SPODFR); format: in vivo; details: maize leaf discs, after 7 days
Outline: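 Percent kill read at day 7 on caterpillar-infested maize leaf discs. Discs were first sprayed with aqueous emulsifier-containing (1000 ppm) preparations made from acetone/dimethylformamide solutions, and dried. Scale: 0% none dead, 100% all dead.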

[10] = tested on: greenhouse red spider mite (Tetranychus urticae); assay: Tetranychus urticae spray test, OP-resistant (TETRUR); format: in vivo; details: bean leaf discs, after 6 days
Outline: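 Percent kill, scored 6 days post-spray (0% = none dead, 100% = all dead), on Phaseolus vulgaris leaf discs infested with every life stage of the OP-resistant spider mite. Compound dissolved in acetone plus DMF, diluted to test concentration with emulsifier-containing water (1000 ppm).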

[11] = tested on: adult dog ticks (Rhipicephalus sanguineus); assay: Rhipicephalus sanguineus in vitro contact test with adult brown dog ticks (T2); details: after 48 h
Outline: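 Acetone solutions coated onto test tube walls and floor, giving 5 μg/cm^2 at 900 ppm. Five to ten adult ticks held per tube in the dark at room temperature for 48 h, then heated at 45-50° C for up to 5 min; efficacy is the percentage of dead or moribund ticks unable to climb away.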

[12] = logP determination by HPLC on a reversed-phase column (C18), EEC Directive 79/831 Annex V.A8; format: physicochemical; details: HPLC on reversed-phase column (C18), acetonitrile/water with formic acid, EEC Directive 79/831 Annex V.A8
Outline: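 Per EEC 79/831 Annex V.A8, values derive from HPLC retention at 2.0 ml/min and 55° C on a 50*4.6 C18 column. The 10→95% acetonitrile gradient (0.1%/0.09% formic acid) lasted 4.25 min plus a 1.25 min hold; mass detection was by MSD.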

| SMILES | efficacy (laying of fertile eggs) [1] | efficacy (laying of fertile eggs) [2] | efficacy (kill in %) [3] | efficacy (kill in %) [4] | efficacy (kill in %) [5] | efficacy (dead or moribund fleas) ([6]; application rate 1 μg/cm^2) | efficacy (dead or moribund fleas) ([6]; application rate 5 μg/cm^2) | efficacy in % ([7]; application rate 500 g/ha) | efficacy in % ([8]; application rate 500 g/ha) | efficacy in % ([9]; application rate 500 g/ha) | efficacy in % ([10]; application rate 500 g/ha) | efficacy (dead or moribund ticks) ([11]; application rate 1 μg/cm^2) | efficacy (dead or moribund ticks) ([11]; application rate 5 μg/cm^2) | logP [12] | efficacy in % ([8]; application rate 100 g/ha) | efficacy in % ([9]; application rate 100 g/ha) | efficacy in % ([7]; application rate 100 g/ha) | efficacy in % ([10]; application rate 100 g/ha) |
| --- | --- | --- | --- | --- | --- | --- | --- | --- | --- | --- | --- | --- | --- | --- | --- | --- | --- | --- |
| Cc1nnc(NC(=O)c2cc(-c3cnn(-c4c(C(F)(F)F)c(C(F)(F)C(F)(F)F)nn4C)c3)ccc2Cl)o1 [Ic-158] | 100% | 100% | 100% | 100% | 90% | 100% | 100% |  |  |  |  |  |  |  |  |  |  |  |
| Cn1nc(C(F)(F)C(F)(F)F)c(C(F)(F)F)c1-n1cc(-c2cc(C(=O)NC3CC3)ccc2F)cn1 [Ic-41] |  | 100% | 100% | 100% | 100% | 100% | 100% | 100% | 100% | 100% | 100% |  |  |  |  |  |  |  |
| Cn1nc(C(F)(F)C(F)(F)F)c(C(F)(F)F)c1-n1cc(-c2cncc(C(=O)NC3CC3)c2)cn1 [Ic-70] |  | 100% | 100% | 100% | 100% | 100% | 100% | 90% | 100% | 100% |  | 100% | 100% |  |  |  |  |  |
| Cn1nccc1NC(=O)c1cc(-c2cnn(-c3c(C(F)(F)F)c(C(F)(F)C(F)(F)F)nn3C)c2)ccc1Cl [Ic-163] |  | 100% | 100% | 100% | 90% | 100% | 100% | 90% | 100% | 100% | 100% | 100% |  |  |  |  |  |  |
| Cn1nc(C(F)(F)C(F)(F)F)c(C(F)(F)F)c1-n1cc(-c2ccc(Cl)c(C(=O)NC3(C(N)=O)CC3)c2)cn1 [Ic-29] | 80% | 100% | 100% | 100% | 100% | 100% | 100% |  |  |  |  |  |  | 3.07 | 100% | 100% |  |  |
| Cn1nc(C(F)(F)C(F)(F)F)c(C(F)(F)F)c1-n1cc(-c2ccc(Cl)c(C(=O)NC3CSC3)c2)cn1 [Ic-28] |  | 100% | 100% | 100% | 100% | 100% | 100% |  |  |  |  |  | 100% | 4.09 | 100% | 100% | 90% | 100% |
| Cn1nc(C(F)(F)C(F)(F)F)c(C(F)(F)F)c1-n1cc(-c2ccc(F)c(C(=O)NC3(C#N)CC3)c2F)cn1 [Ic-175] | 90% | 100% | 100% | 100% | 100% | 100% | 100% |  | 100% | 100% | 100% |  |  |  |  |  |  |  |
| Cc1coc(NC(=O)c2cc(-c3cnn(-c4c(C(F)(F)F)c(C(F)(F)C(F)(F)F)nn4C)c3)ccc2Cl)n1 [Ic-160] | 100% | 100% | 100% | 100% | 100% | 100% | 100% |  |  |  |  | 100% | 100% |  |  |  |  |  |
| Cn1nc(C(F)(F)C(F)(F)F)c(C(F)(F)F)c1-n1cc(-c2cncc(C(=O)NC3(C#N)CC3)c2)cn1 [Ic-71] |  | 100% | 100% | 100% | 80% | 100% | 100% | 100% | 100% | 100% | 100% | 80% | 100% |  |  |  |  |  |
| Cc1ccc(-c2cnn(-c3c(C(F)(F)F)c(C(F)(F)C(F)(F)F)nn3C)c2)cc1C(=O)NC1CC1 [Ic-130] | 100% |  |  |  |  |  |  |  |  |  |  |  |  | 3.76 | 100% |  |  |  |
